Data on 39 molecules can be found in ChEMBL document CHEMBL3301361, “Experimental in vitro DMPK and physicochemical data on a set of publicly disclosed compounds”.

Broadly, the fraction unbound is free concentration divided by total concentration. For orientation: logD means lipophilicity at a set pH, counting ionised and neutral species. The low end stands for lower lipophilicity, the high end for higher lipophilicity. The solubility (thermodynamic) is solubility found after equilibrating the solid with the medium.

A short description of data set [1]: in vitro. The settings on record: mouse, plasma.
The nature of data set [2]: in vitro. The settings on record: human, plasma.
Data set [3] can be described thus: in vitro. The settings on record: SD, HW or BN, rat, plasma.
The nature of data set [4]: physchem. The settings on record: octan-1-ol/water, pH 7.4, LogD7.4.
Data set [5] in a line: physchem. The settings on record: pH 7.4 buffer.

SMILES strings stand for the structures. Converted amounts (≈) assume the structure as drawn.

Consider `Nc1scc2c(C(=O)NC3CC3)nn(-c3ccc(Cl)cc3)c(=O)c12`, for which the results for the fraction unbound at 5 h in the data set “in vitro [1]” and in “in vitro [2]” (PPB) were 0.0321 and 0.0179, respectively.
With `CC(C)NC(=O)c1nn(-c2ccc(Cl)cc2)c(=O)c2c(N)scc12`, the fraction unbound at 5 h in “in vitro [1]” was 0.0219; in “in vitro [2]” (PPB) it was 0.0099.
For `Cc1cc(C)c(S(=O)(=O)NCc2ccncc2)c(C)c1`, the free fraction (fraction unbound) at 5 h was 0.139 in “in vitro [3]”, 0.151 in “in vitro [1]” and 0.139 in the data set “in vitro [2]” (PPB).
Regarding `COc1ccc(S(=O)(=O)N2CC(C)N(S(=O)(=O)c3ccc(OC)cc3)CC2C)cc1` (stereo not drawn), the fraction unbound at 5 h is 0.0139 in “in vitro [3]”, 0.0179 in “in vitro [1]” and 0.0035 in “in vitro [2]”.
Consider `NC(=O)c1ccc(-n2nnnc2Oc2ccc(Br)cc2)cc1`, for which the free fraction (fraction unbound) at 5 h was 0.0872 in the data set “in vitro [3]” and 0.0854 in “in vitro [1]”.
In the case of `N#CCOc1ccccc1-c1ccc(-c2nc3ccncc3c(O)c2C#N)cc1`, the fraction unbound at 5 h in the data set “in vitro [1]” was 0.0149; in the data set “in vitro [2]” (PPB) it was 0.0011.
The corresponding values for `N#Cc1c(-c2ccc(-c3ccccc3Cl)cc2)nc2ccncc2c1O` are 0.0022 and 0.0008.
Regarding `Cc1cc(-c2ccc(-c3nc4ccncc4c(O)c3C#N)cc2)ccn1`, the fraction unbound at 5 h was 0.013 in “in vitro [1]” and 0.0041 in “in vitro [2]” (PPB). In addition, the log distribution coefficient (logD) in “physchem [4]” worked out at 1.6.
`COCC#Cc1cccc(C2(c3ccc(OC(F)F)cc3)N=C(N)N3CC(F)(F)CN=C32)c1` (stereo not drawn): the free fraction (fraction unbound) at 5 h in the data set “in vitro [1]” was 0.013; in the data set “in vitro [2]” (PPB), 0.0111.
As to `COc1cc(Nc2nc3c(c(COC4CCCC4)n2)COCC3)ccc1-n1cnc(C)c1`, the free fraction (fraction unbound) at 5 h in the data set “in vitro [3]” was 0.0205; in the data set “in vitro [1]” it was 0.0149.
As for `COc1cc(Nc2nc3c(c(Cc4ccccc4)n2)CN(CCO)CC3)ccc1-n1cnc(C)c1`, the fraction unbound at 5 h in the data set “in vitro [1]” was 0.02; in “in vitro [2]” (PPB) it was 0.0191.
For `c1ccc([C@@H]([C@H](c2ccccc2)N2CCCCC2)N2CCCCC2)cc1`, the fraction unbound at 5 h was 0.319 in “in vitro [3]”, 0.262 in “in vitro [1]” and 0.0988 in the data set “in vitro [2]” (PPB).
Take `CC#Cc1cncc(-c2cccc(C3(c4cc(C)c(OC)c(C)c4)N=C(C)C(N)=N3)c2)c1` (stereo not drawn): the fraction unbound at 5 h in “in vitro [1]” was 0.006; in “in vitro [2]” (PPB), 0.002.
Consider `CCCN(c1cccc(C#N)c1)P(=O)(c1ccccc1)c1ccccc1`, for which the fraction unbound at 5 h was 0.0633 in the data set “in vitro [3]”, 0.0467 in “in vitro [1]” and 0.0056 in “in vitro [2]”.
Take `CCOc1cc(CN2CCC(Nc3nc4cc(S(N)(=O)=O)ccc4o3)CC2)cc(OCC)c1N`: the values for the free fraction (fraction unbound) at 5 h in the data set “in vitro [3]”, in “in vitro [1]” and in “in vitro [2]” (PPB) were 0.11, 0.0928 and 0.299, respectively.
On to `C[C@H](c1ccc(F)cc1CCCC(=O)O)N(c1cc(F)ccc1F)S(=O)(=O)c1ccc(Cl)cc1`, for which the figures for the fraction unbound at 5 h in the data set “in vitro [1]” and in the data set “in vitro [2]” (PPB) were 0.005 and 0.001, respectively. The log distribution coefficient (logD) in the data set “physchem [4]” was determined as 3.1.
For `CCNc1cc(C(=O)N[C@@H](Cc2ccccc2)[C@H](O)CNCc2cccc(C(F)(F)F)c2)c(F)c(N2CCCCS2(=O)=O)c1`, the unbound share (fraction unbound) at 5 h was 0.016 in the data set “in vitro [1]” and 0.0119 in the data set “in vitro [2]” (PPB).
Consider `CC(O)(C(=O)Nc1ccc(S(=O)(=O)N2CCCC2)cc1)C(F)(F)F` (stereo not drawn), for which the fraction unbound at 5 h in “in vitro [3]” was 0.119; in “in vitro [1]”, 0.0818; in “in vitro [2]” (PPB), 0.22.
Consider `O=C1Nc2cc(C(F)(F)F)ccc2C1(O)c1cc(Cl)ccc1O` (stereo not drawn), for which the fraction unbound at 5 h is 0.0111 in “in vitro [3]”, 0.0219 in the data set “in vitro [1]” and 0.0149 in “in vitro [2]”.
Regarding `c1cncc(Nc2ncc(-c3ccncn3)c(-c3ccco3)n2)c1`, the values for the fraction unbound at 5 h in “in vitro [3]”, in “in vitro [1]” and in “in vitro [2]” (PPB) were 0.139, 0.16 and 0.139, respectively.
Regarding `O=c1[nH]c2cc(C(F)(F)F)ccc2n1-c1cc(C(F)(F)F)ccc1O`, the free fraction (fraction unbound) at 5 h in “in vitro [3]” is 0.0011; in the data set “in vitro [1]” it was 0.0021.
`CCCC[C@H](NC[C@@H]1Cc2cccc(c2)CCCCc2cc(cc(N(CCC)S(C)(=O)=O)c2)C(=O)N1)C(=O)NCC(C)C`: the fraction unbound at 5 h in “in vitro [1]” was 0.002; in “in vitro [2]” (PPB), 0.004.
With `Cc1nc(-c2c(F)cc(Cl)cc2-c2cnc([C@@H](C)NC(=O)[C@@](C)(O)C(F)(F)F)c(F)c2)no1`, the fraction unbound at 5 h was 0.0358 in the data set “in vitro [3]” and 0.0251 in the data set “in vitro [1]”.
Turning to `C[C@H](NC(=O)Cc1cc(F)cc(F)c1)C(=O)NC1C(=O)N(C)c2ccccc2-c2ccccc21` (stereo partly drawn), the unbound share (fraction unbound) at 5 h in the data set “in vitro [1]” was 0.0171; in “in vitro [2]” (PPB), 0.0099. The molecule also showed a logD in “physchem [4]” of 3.6.
Regarding `C1Cc2[nH]nc(-c3nnn[nH]3)c2C1`, the fraction unbound at 5 h in “in vitro [3]” was 0.072; in the data set “in vitro [1]” it was 0.371.
The corresponding values for `CCCn1c(=O)[nH]c2nc(-c3ccc(S(=O)(=O)N4CCN(Cc5ccc(Cl)cc5)CC4)cc3)[nH]c2c1=O` are 0.0006 and 0.0007.
On to `COc1cc(C(C)C)c(Oc2cnc(NC(CO)CO)nc2N)cc1I`, for which the values for the unbound share (fraction unbound) at 5 h in the data set “in vitro [3]” and in “in vitro [1]” were 0.028 and 0.0581, respectively.
For the molecule `CC(C)Cc1c(C(=O)C(N)=O)c2c(OCC(=O)O)cccc2n1Cc1ccccc1`, the fraction unbound at 5 h is 0.0187 in “in vitro [3]”, 0.0366 in the data set “in vitro [1]” and 0.0313 in the data set “in vitro [2]”.
`Fc1ccc(-c2c[nH]c(C3CCN(Cc4ccn(-c5ccc(C(F)(F)F)cc5)c4)CC3)n2)cc1`: the values for the fraction unbound at 5 h in the data set “in vitro [1]” and in “in vitro [2]” (PPB) were 0.0023 and 0.0009, respectively.
As to `O=C(Nc1ccc(Cl)c(C(=O)Nc2cccnc2)c1)c1cccc(C(F)(F)F)c1`, the fraction unbound at 5 h in “in vitro [1]” is 0.0119; in the data set “in vitro [2]” (PPB) it was 0.003.
Turning to `CC(C)[C@H](O)C(=O)N[C@@H](C)C(=O)N[C@@H]1C(=O)N(C)CCc2ccccc21`, the unbound share (fraction unbound) at 5 h in “in vitro [3]” was 0.792; in “in vitro [1]” it was 0.858; in the data set “in vitro [2]” (PPB), 0.803.
In the case of `O=C(CC1CCN(Cc2ccn(-c3ccc(C(F)(F)F)cc3)c2)CC1)NC(c1ccncc1)c1ccc(Cl)cc1` (stereo not drawn), the unbound share (fraction unbound) at 5 h is 0.0051 in “in vitro [1]” and 0.013 in the data set “in vitro [2]” (PPB).
Regarding `c1ccc2nc(COc3ccc(-c4n[nH]cc4-c4ccncc4)cc3)ccc2c1`, the fraction unbound at 5 h was 0.0018 in the data set “in vitro [3]” and 0.0013 in the data set “in vitro [1]”.
The corresponding values for `COc1ccc(C2(c3ccc(F)c(-c4cccnc4F)c3)N=C(N)N(C)C2=O)cc1C` (stereo not drawn) are 0.0099 and 0.0081.
In the case of `CCOc1cc2c(c(F)c1OCC)C(=N)N(CC(=O)c1cc(N3CCOCC3)c(OC)c(C(C)(C)C)c1)C2` [ATOPAXAR], the free fraction (fraction unbound) at 5 h in “in vitro [1]” is 0.0025; in the data set “in vitro [2]” (PPB) it was 0.0021.
In the case of `CCC(CC)[C@@H](CO)NS(=O)(=O)c1ccc(Cl)s1` [GSI-136], the fraction unbound at 5 h in the data set “in vitro [3]” was 0.0909; in the data set “in vitro [1]” it was 0.11.
The molecule `CC(C)Cn1cnc2c(N)nc3ccccc3c21` [IMIQUIMOD] returned a solubility (thermodynamic) in the data set “physchem [5]” of 63.1 µM (≈ 15.2 µg/mL). Also, the unbound share (fraction unbound) at 5 h in the data set “in vitro [3]” was 0.179; in “in vitro [1]”, 0.0075. The same molecule had a logD in the data set “physchem [4]” of 2.52.
As to `Cn1cc(-c2ccncc2)c(-c2ccc(OCc3ccc4ccccc4n3)cc2)n1` [MARDEPODECT], the free fraction (fraction unbound) at 5 h was 0.0017 in the data set “in vitro [3]” and 0.0039 in the data set “in vitro [1]”.
`CCCCCCC(=O)CCCCCC/C=C/C[C@@H](O)[C@H](O)[C@@](N)(CO)C(=O)O` [MYRIOCIN]: the unbound share (fraction unbound) at 5 h in the data set “in vitro [3]” is 0.028; in the data set “in vitro [1]”, 0.062.
